Article PMC12735773, “Toward Brain NaV1.8 Imaging with [^11C]Suzetrigine” (Pharmaceuticals, 2025)

Columns and labels:
NaV1.8 [1] = target: T1, NaV1.8 (Rattus norvegicus, UniProt Q62968); assay: radioligand saturation binding autoradiography on rat brain sections, with homologous block
T1 construct: gene Scn10a; native protein in rat brain sections

NaV1.8 [2] = target: T1, NaV1.8; assay: competition autoradiography, displacement of [^11C]suzetrigine on rat brain sections; details: read-out: % reduction of binding at 2 μM

T1 sequence (Q62968 whole entry): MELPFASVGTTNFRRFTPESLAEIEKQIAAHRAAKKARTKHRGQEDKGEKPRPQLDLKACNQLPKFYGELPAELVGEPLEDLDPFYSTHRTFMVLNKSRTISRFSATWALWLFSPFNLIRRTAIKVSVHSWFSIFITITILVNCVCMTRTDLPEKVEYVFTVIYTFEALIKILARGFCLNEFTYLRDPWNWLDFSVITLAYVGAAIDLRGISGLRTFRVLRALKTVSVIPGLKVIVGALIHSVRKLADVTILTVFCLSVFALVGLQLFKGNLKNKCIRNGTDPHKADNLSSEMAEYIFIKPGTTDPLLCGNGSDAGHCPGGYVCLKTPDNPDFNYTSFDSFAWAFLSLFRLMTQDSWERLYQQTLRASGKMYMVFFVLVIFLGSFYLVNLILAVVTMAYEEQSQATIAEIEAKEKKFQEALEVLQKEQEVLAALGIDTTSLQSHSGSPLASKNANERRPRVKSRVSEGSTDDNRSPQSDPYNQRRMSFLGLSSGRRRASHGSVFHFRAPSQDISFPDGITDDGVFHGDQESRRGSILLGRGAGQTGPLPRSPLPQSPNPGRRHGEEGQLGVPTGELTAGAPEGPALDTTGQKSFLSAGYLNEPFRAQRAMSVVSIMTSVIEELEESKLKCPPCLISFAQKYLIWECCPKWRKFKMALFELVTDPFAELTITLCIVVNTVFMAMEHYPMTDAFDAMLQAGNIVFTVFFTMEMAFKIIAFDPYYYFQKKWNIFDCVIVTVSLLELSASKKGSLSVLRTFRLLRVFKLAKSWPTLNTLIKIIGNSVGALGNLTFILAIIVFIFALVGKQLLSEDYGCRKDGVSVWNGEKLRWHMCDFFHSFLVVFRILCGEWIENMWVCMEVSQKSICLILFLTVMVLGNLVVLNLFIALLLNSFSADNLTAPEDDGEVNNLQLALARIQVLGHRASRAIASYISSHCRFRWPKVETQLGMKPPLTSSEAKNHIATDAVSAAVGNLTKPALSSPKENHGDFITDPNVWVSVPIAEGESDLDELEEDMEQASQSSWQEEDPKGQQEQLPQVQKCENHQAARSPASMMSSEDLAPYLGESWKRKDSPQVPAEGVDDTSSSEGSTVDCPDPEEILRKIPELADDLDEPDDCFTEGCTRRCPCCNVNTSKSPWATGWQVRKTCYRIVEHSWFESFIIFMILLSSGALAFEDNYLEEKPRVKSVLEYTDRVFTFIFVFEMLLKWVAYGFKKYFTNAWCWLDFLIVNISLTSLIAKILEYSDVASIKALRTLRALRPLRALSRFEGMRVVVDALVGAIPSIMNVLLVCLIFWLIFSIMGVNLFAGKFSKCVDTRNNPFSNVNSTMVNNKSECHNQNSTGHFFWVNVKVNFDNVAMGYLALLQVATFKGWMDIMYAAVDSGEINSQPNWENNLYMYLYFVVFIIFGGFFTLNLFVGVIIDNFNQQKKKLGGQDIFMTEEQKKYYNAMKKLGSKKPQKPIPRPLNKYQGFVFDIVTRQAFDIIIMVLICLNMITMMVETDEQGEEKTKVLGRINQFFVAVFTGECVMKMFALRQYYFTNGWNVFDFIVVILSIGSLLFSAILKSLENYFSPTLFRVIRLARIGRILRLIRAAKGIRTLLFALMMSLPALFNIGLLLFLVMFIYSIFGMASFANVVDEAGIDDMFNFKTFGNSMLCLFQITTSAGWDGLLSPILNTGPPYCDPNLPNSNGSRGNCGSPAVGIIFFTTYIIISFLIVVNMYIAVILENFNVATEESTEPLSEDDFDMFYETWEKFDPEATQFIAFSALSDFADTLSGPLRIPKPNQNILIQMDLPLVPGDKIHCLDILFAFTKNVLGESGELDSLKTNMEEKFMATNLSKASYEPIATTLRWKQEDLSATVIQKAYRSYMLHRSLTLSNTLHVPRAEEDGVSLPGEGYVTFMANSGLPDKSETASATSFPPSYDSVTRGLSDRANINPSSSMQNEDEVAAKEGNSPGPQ

With COc1c([C@H]2[C@H](C(=O)Nc3ccnc(C(N)=O)c3)O[C@@](C)(C(F)(F)F)[C@H]2C)ccc(F)c1F [compound 2, suzetrigine] the Kd (NaV1.8 [1]) was 0.1 nM.
COc1cc(NC(=O)c2ccc(-c3ccc(Cl)cc3)o2)cc(OC)c1 [A-803467] was tested, and the inhibition at 2 µM (NaV1.8 [2]) was ~50%.
